Results on three molecules are retold here after ChEMBL document CHEMBL5370598, “[3H]UR-JG102-A Radiolabeled Cyclic Peptide with High Affinity and Excellent Selectivity for the Neuropeptide Y Y4 Receptor” (J Med Chem, 2023).

Starred links: 1 amine or outer side, 2 acyl side, 3 side chain; linkers in the order of their positions; H or OH if unused. Positions of bridges follow the written chain, without caps; N, C: chain ends. Non-standard residues stand in square brackets, D forms with d. Residues, ends and D or L forms follow the SMILES beside them. *: point of attachment. Arg(Nω-CO) = N/C(=N\C(=O)[*:3])NCCC[C@H](N[*:1])C(=O)[*:2]; Ethylenediamine = C(CN[*:2])N[*:1]; Propionyl = CCC(=O)*

For test [1], the target named is T1, Neuropeptide Y receptor type 4 (Homo sapiens, UniProt P50391). As to the kind of experiment: Binding affinity to human Y4R under sodium free condition.
The target in test [2] is T1, Neuropeptide Y receptor type 4. The experiment in a line: Binding affinity to human Y4R under 150 mM sodium condition.
The target is the same in test [3]. As to the kind of experiment: Displacement of [3H]-(9S,12S,15S,19R,E)-4-amino-N-((S)-1-(((S)-1-(((S)-1-amino-3-(4-hydroxyphenyl)-1-oxopropan-2-yl)amino)-5-guanidino-1-oxopentan-2-yl)amino)-4-methyl-1-oxopentan-2-yl)-15-(3-guanidinopropyl)-12-(4-hydroxybenzyl)-2,11,14,17,20-pentaoxo-19-(4-(propanamido-2,3-t2)butanamido)-1,3,5,10,13,16,21-heptaazacyclopentacos-3-ene-9-carboxamide from human Y4R expressed in CHO cells coexpressing Gqi5-mtAEQ under isotonic sodium containing buffer condition. Type of test: cell-based. Particulars: read-out: Ki.

The target is the same in test [4]. As to the kind of experiment: Displacement of [3H]-(9S,12S,15S,19R,E)-4-amino-N-((S)-1-(((S)-1-(((S)-1-amino-3-(4-hydroxyphenyl)-1-oxopropan-2-yl)amino)-5-guanidino-1-oxopentan-2-yl)amino)-4-methyl-1-oxopentan-2-yl)-15-(3-guanidinopropyl)-12-(4-hydroxybenzyl)-2,11,14,17,20-pentaoxo-19-(4-(propanamido-2,3-t2)butanamido)-1,3,5,10,13,16,21-heptaazacyclopentacos-3-ene-9-carboxamide from human Y4R expressed in CHO cells coexpressing Gqi5-mtAEQ under hypotonic sodium free buffer condition. Type of test: cell-based.

The target is the same in test [5]. The experiment in a line: Displacement of [3H]UR-KK200 from human Y4R expressed in CHO cells co-expressing Gqi5-mtAEQ. Type of test: cell-based. The settings on record: read-out: Ki.
The target is the same in test [6]. The experiment in a line: Agonist activity at human Y4R expressed in CHO cells co-expressing Gqi5-mtAEQ by calcium2+ aequorin assay. Particulars: read-out: EC50. Type of test: functional, cell-based.
For test [7], the target named is T2, Neuropeptide Y receptor type 5 (Homo sapiens, UniProt Q15761).
T2 sequence (Q15761 whole entry): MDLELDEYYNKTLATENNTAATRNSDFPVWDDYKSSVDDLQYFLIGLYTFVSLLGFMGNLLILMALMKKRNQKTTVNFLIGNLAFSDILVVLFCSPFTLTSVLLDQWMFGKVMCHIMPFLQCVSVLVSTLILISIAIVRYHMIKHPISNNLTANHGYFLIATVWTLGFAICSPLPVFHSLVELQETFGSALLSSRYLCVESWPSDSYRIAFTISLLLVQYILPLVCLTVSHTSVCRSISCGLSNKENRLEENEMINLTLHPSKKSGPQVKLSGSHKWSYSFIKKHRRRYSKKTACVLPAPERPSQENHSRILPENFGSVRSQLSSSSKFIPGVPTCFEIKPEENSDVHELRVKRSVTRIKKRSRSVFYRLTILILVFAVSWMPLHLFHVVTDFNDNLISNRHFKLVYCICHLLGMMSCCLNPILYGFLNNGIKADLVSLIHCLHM
The experiment in a line: Displacement of [3H]propionyl-pNPY from human Y5R expressed in HEC-1B cells. Type of test: cell-based, HEC-1B cell line.

For test [8], the target named is T1, Neuropeptide Y receptor type 4. As to the kind of experiment: Agonist activity at human Y4R expressed in CHO cells co-expressing Gqi5-mtAEQ by calcium2+ aequorin assay relative to control. Type of test: functional, cell-based. Particulars: filed as agonist.
Test [9] shares this target. The experiment in a line: Agonist activity at human Y4R expressed in HEK293T cells incubated for 60 mins by cAMP CAMYEN assay relative to control. Type of test: functional, cell-based. The settings on record: filed as agonist.
Test [10] has the same target. The experiment in a line: Agonist activity at human Y4R expressed in HEK293T cells incubated for 60 mins by cAMP CAMYEN assay. Type of test: functional, cell-based. Particulars: read-out: EC50.
The target in test [11] is T3, Neuropeptide Y receptor type 2 (Homo sapiens, UniProt P49146).
T3 sequence (P49146 whole entry): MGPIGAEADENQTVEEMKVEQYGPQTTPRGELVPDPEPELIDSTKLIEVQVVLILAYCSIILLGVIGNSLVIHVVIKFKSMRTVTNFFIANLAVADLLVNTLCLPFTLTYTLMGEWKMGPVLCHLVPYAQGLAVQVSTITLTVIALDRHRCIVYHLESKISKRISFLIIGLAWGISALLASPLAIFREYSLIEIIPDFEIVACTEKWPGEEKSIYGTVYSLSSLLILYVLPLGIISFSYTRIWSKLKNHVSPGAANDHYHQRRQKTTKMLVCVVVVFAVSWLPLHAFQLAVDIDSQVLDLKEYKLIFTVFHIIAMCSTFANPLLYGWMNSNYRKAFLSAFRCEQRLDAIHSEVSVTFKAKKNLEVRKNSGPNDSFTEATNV
The experiment in a line: Displacement of [3H]propionyl-pNPY from human Y2R expressed in CHO cells. Type of test: cell-based.

Test [12] has as its target T1, Neuropeptide Y receptor type 4. The experiment in a line: Agonist activity at human Y4R expressed in HEK293T cells by miniGsi assay. Type of test: functional, cell-based.
The target is the same in test [13]. The experiment in a line: Agonist activity at human Y4R expressed in HEK293T cells by miniGsi assay relative to control. The settings on record: filed as agonist. Type of test: functional, cell-based.
Test [14] addresses T4, Neuropeptide Y receptor type 1 (Homo sapiens, UniProt P25929).
T4 sequence (P25929 whole entry): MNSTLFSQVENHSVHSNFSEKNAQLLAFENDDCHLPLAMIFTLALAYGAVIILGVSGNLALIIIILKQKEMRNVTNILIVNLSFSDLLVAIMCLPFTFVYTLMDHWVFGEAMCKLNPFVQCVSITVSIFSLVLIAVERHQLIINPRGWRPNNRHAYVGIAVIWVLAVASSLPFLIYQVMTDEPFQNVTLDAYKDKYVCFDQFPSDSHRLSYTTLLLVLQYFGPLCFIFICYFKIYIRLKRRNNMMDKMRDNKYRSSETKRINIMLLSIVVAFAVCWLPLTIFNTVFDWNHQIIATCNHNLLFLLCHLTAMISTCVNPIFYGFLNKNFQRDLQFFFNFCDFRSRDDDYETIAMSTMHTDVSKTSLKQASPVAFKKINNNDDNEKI
As to the kind of experiment: Displacement of [3H]UR-MK299 from human Y1R expressed in SK-N-MC cells. Type of test: cell-based.

T1 sequence (P50391 whole entry): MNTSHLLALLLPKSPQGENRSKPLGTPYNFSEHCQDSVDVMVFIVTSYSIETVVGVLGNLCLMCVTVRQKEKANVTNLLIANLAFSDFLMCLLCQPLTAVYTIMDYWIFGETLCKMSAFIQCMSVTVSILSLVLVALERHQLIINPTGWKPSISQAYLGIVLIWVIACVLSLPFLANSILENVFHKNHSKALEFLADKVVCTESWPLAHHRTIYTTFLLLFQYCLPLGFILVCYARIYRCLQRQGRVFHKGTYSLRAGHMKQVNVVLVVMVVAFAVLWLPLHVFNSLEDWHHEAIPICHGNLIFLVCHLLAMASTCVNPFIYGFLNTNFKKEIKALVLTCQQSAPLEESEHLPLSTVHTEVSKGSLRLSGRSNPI

Regarding `[3H]CC([3H])C(=O)NCCCC[C@H](NC(=O)[C@H](CC(C)C)NC(=O)[C@@H]1CCCN1C(=O)[C@H](C)N)C(=O)N1CCC[C@H]1C(=O)N[C@H](C(=O)N[C@@H](Cc1ccc(O)cc1)C(=O)N1CCC[C@H]1C(=O)NCC(=O)N[C@@H](CC(=O)O)C(=O)N[C@@H](CC(N)=O)C(=O)N[C@@H](C)C(=O)N[C@H](C(=O)N1CCC[C@H]1C(=O)N[C@@H](CCC(=O)O)C(=O)N[C@@H](CCC(N)=O)C(=O)NC(CCCC)C(=O)N[C@@H](C)C(=O)N[C@@H](CCC(N)=O)C(=O)N[C@@H](Cc1ccc(O)cc1)C(=O)N[C@@H](C)C(=O)N[C@@H](C)C(=O)N[C@@H](CC(N)=O)C(=O)N[C@@H](CC(C)C)C(=O)N[C@@H](CCCNC(=N)N)C(=O)N[C@@H](CCCNC(=N)N)C(=O)N[C@@H](Cc1ccc(O)cc1)C(=O)N[C@H](C(=O)N[C@@H](CC(N)=O)C(=O)NC(CCCC)C(=O)N[C@@H](CC(C)C)C(=O)N[C@H](C(=O)N[C@@H](CCCNC(=N)N)C(=O)N1CCC[C@H]1C(=O)N[C@@H](CCCNC(=N)N)C(=O)N[C@@H](Cc1ccc(O)cc1)C(N)=O)[C@@H](C)O)[C@@H](C)CC)[C@@H](C)O)C(C)C` (some centres undefined), the Kd worked out at 1.1 nM in test [1] and 20.9 nM in test [2].
On to `[3H]CC([3H])C(=O)NCCCCNC(=O)/N=C(\N)NCCCC[C@H](NC(=O)[C@H](Cc1ccc(O)cc1)NC(=O)CCCCCCC(=O)N[C@@H](Cc1ccc(O)cc1)C(=O)N[C@@H](CCCNC(=N)N)C(=O)N[C@@H](CC(C)C)C(=O)N[C@@H](CCCNC(=N)N)C(=O)N[C@@H](Cc1ccc(O)cc1)C(N)=O)C(=O)N[C@@H](CC(C)C)C(=O)N[C@@H](CCCNC(=N)N)C(=O)N[C@@H](Cc1ccc(O)cc1)C(N)=O` (some centres undefined), for which the results for the Ki in test [3], in test [4] (read-out: Ki) and in [4] (read-out: pKi (converted)) were 6.7 nM, 0.41 nM and 0.209 nM, respectively. In [1], this molecule registered a Kd of 0.67 nM.
In the case of `CCC(=O)N[C@H]1CCC(=O)NCCNC(=O)/N=C(\N)NCCC[C@@H](C(=O)N[C@@H](CC(C)C)C(=O)N[C@@H](CCCNC(=N)N)C(=O)N[C@@H](Cc2ccc(O)cc2)C(N)=O)NC(=O)[C@H](Cc2ccc(O)cc2)NC(=O)[C@H](CCCNC(=N)N)NC1=O` (Propionyl-ERY[Arg(Nω-CO)]LRY-NH2; linker 1-4 via Ethylenediamine), the Ki in test [5] is 0.26 nM; in [7] (hec-1b cell line, read-out: Ki) it was more than 1000 nM; in [7] (read-out: pKi (converted)), more than 1000 nM; in [11] (read-out: Ki) it was more than 3000 nM; in [11] (read-out: pKi (converted)), more than 3160 nM; in test [14] (read-out: pKi (converted)) it was more than 1000 nM. In test [14] (sk-n-mc, read-out: Ki), the Ki is more than 1000 nM. Further, the EC50 in test [6] was 71 nM; in test [10], 0.41 nM; in [12] it was 19 nM. Further, the Emax is 66% in [8], 86% in test [9] and 70% in [13].
